In ChEMBL document CHEMBL1155186, “O-Spiro C-aryl glucosides as novel sodium-dependent glucose co-transporter 2 (SGLT2) inhibitors” (Bioorg Med Chem Lett, 2009):

What was measured:
[1] = target: T1, Sodium/glucose cotransporter 2 (Homo sapiens) (UniProt P31639); details: 10 nM
T1 sequence (whole entry): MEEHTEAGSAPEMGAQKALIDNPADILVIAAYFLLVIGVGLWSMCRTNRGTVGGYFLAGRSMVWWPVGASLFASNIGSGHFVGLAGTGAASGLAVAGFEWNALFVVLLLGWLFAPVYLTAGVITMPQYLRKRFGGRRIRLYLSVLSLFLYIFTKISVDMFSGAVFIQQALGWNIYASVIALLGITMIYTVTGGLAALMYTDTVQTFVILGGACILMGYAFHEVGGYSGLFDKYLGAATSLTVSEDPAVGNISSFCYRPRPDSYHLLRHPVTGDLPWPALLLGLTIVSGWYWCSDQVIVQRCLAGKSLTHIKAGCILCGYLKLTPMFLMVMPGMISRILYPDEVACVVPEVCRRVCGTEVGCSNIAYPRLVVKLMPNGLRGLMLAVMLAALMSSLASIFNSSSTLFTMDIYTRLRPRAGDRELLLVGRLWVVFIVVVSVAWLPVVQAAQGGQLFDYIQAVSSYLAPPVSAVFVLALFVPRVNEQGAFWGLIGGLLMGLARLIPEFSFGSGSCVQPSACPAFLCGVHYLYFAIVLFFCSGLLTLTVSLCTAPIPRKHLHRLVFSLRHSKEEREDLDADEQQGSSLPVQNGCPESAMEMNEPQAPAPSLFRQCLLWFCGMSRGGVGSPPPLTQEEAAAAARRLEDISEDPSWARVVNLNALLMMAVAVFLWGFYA
Description: Inhibition of human SGLT2 expressed in HEK293.ETN cells assessed as methyl-alpha-D-[U-14C]glucopyranoside uptake at 10 nM by scintillation counting

[2] = target: T2, Sodium/glucose cotransporter 1 (Homo sapiens) (UniProt P13866); details: COS-7, 10 uM
T2 sequence (whole entry): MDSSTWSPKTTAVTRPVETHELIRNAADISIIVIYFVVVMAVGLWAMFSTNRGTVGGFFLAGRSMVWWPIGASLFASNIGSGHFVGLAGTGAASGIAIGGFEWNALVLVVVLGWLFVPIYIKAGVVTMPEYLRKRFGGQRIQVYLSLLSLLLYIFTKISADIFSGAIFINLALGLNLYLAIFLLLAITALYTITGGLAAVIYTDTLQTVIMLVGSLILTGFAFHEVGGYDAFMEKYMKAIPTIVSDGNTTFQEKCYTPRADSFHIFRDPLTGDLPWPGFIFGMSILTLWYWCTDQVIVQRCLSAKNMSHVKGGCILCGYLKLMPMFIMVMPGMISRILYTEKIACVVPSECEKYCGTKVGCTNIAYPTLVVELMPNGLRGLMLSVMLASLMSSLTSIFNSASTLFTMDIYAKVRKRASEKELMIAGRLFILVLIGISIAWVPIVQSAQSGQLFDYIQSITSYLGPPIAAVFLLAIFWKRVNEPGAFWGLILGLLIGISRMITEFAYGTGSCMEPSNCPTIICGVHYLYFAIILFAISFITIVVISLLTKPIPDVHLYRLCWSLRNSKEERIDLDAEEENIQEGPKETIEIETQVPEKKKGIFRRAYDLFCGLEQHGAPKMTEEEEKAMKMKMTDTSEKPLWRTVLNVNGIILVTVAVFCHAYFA
Description: Inhibition of human SGLT1 expressed in african green monkey COS7 cells assessed as methyl-alpha-D-[U-14C]glucopyranoside uptake at 10 uM by scintillation counting

CCOc1ccc(Cc2cc([C@@H]3O[C@H](CO)[C@@H](O)[C@H](O)[C@H]3O)ccc2Cl)cc1
inhibition [1]: 69.7% | inhibition [2]: 72.7%
